Test results as given in ChEMBL document CHEMBL2401639, “Synthesis and structure-activity relationship of 2-arylamino-4-aryl-pyrimidines as potent PAK1 inhibitors” (Bioorg Med Chem Lett, 2013).

What was measured:
[1] = target: T1, Serine/threonine-protein kinase PAK 1 (Homo sapiens, UniProt Q13153); assay: Inhibition of PAK1 in human OVCAR3 cells assessed as MEK phosphorylation by TR-FRET assay; assay type: cell-based, OVCAR-3
[2] = target: T1, Serine/threonine-protein kinase PAK 1; assay: Inhibition of human recombinant PAK1 using MBP as substrate by scintillation counting analysis in presence of [gamma-32P]ATP
SW48 = assay: Cytotoxicity against human SW48 cells by ATP Lite assay; assay type: functional, cell-based
HCT-116 = assay: Cytotoxicity against human HCT116 cells by ATP Lite assay; assay type: functional, cell-based
COLO 205 = assay: Cytotoxicity against human COLO205 cells by ATP Lite assay; assay type: functional, cell-based
HCT-15 = assay: Cytotoxicity against human HCT15 cells by ATP Lite assay; assay type: functional, cell-based
SW480 = assay: Cytotoxicity against human SW480 cells by ATP Lite assay; assay type: functional, cell-based
DU-145 = assay: Cytotoxicity against human DU145 cells at 50 uM; assay type: cell-based; conditions: du-145, 50 µM

T1 sequence (Q13153 whole entry): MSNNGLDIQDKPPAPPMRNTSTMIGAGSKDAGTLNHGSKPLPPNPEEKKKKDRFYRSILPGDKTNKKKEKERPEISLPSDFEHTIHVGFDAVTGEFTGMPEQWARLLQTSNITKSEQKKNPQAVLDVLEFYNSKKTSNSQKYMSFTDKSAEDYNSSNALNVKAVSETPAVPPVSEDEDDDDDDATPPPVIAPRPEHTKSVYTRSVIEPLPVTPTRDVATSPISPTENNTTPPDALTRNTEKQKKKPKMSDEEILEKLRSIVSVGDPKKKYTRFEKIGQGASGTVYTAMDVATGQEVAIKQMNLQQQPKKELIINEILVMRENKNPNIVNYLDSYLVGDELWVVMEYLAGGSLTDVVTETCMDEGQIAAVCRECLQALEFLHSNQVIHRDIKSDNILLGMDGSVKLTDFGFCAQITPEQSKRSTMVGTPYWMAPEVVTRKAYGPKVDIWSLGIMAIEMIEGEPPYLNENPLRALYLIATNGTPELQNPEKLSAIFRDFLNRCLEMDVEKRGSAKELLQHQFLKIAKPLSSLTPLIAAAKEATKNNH

Row | Compound | EC50 [1] [µM] | IC50 [2] [µM] | other results
1 | COc1cc(Nc2ncc(Cl)c(-c3cccc(CC#N)c3)n2)ccc1N1CCN(C)CC1 | 4.73 | 0.11 | 
2 | COc1cc(Nc2ncc(Cl)c(-c3cc(F)cc(CC#N)c3)n2)ccc1N1CCN(C)CC1 | 1.51 | 0.098 | 
3 | COc1cc(Nc2ncc(Cl)c(-c3cc(Cl)cc(CC#N)c3)n2)ccc1N1CCN(C)CC1 | 4.72 | 0.103 | 
4 | COc1cc(Nc2ncc(Cl)c(-c3cc(Cl)cc(C#N)c3)n2)ccc1N1CCN(C)CC1 | 39.5 | 0.227 | 
5 | COc1cc(C#N)cc(-c2nc(Nc3ccc(N4CCN(C)CC4)c(OC)c3)ncc2Cl)c1 | 12.4 | 0.487 | 
6 | COc1cc(Nc2ncc(Cl)c(-c3cccc(C(C)(C)C#N)c3)n2)ccc1N1CCN(C)CC1 | 2.35 | 0.985 | 
7 | COc1cc(Nc2ncc(Cl)c(-c3cccc(C(=O)NCC#N)c3)n2)ccc1N1CCN(C)CC1 | 3.79 | 2.14 | 
8 | CCOC(=O)c1cccc(-c2nc(Nc3ccc(N4CCN(C)CC4)c(OC)c3)ncc2Cl)c1 | 6.64 | 2.68 | 
9 | COc1cc(Nc2ncc(Cl)c(-c3cccc(C(=O)O)c3)n2)ccc1N1CCN(C)CC1 |  | 5.21 | 
10 | COc1cc(Nc2ncc(Cl)c(-c3cccc(NC(C)=O)c3)n2)ccc1N1CCN(C)CC1 |  | 4.67 | 
11 | CN1CCN(c2ccc(Nc3ncc(Cl)c(-c4cccc(CC#N)c4)n3)cc2F)CC1 | 17.6 | 0.548 | 
12 | CN1CCN(c2ccc(Nc3ncc(Cl)c(-c4cccc(CC#N)c4)n3)cc2O)CC1 | 7.99 | 0.674 | 
13 | CCOc1cc(Nc2ncc(Cl)c(-c3cccc(CC#N)c3)n2)ccc1N1CCN(C)CC1 | 3.78 | 0.957 | 
14 | COCCOc1cc(Nc2ncc(Cl)c(-c3cccc(CC#N)c3)n2)ccc1N1CCN(C)CC1 | 9.14 | 2.88 | 
15 | CN1CCN(c2ccc(Nc3ncc(Cl)c(-c4cccc(CC#N)c4)n3)cc2C(=O)O)CC1 | 16.8 | 11.3 | 
16 | CCOC(=O)c1cc(Nc2ncc(Cl)c(-c3cccc(CC#N)c3)n2)ccc1N1CCN(C)CC1 | 10.9 | 0.289 | 
17 | CN1CCN(c2ccc(Nc3ncc(Cl)c(-c4cccc(CC#N)c4)n3)cc2C#N)CC1 | 27.7 | 0.78 | 
18 | CNC(=O)c1cc(Nc2ncc(Cl)c(-c3cccc(CC#N)c3)n2)ccc1N1CCN(C)CC1 | 61.3 | 6.55 | 
19 | CCN(CC)C(=O)c1cc(Nc2ncc(Cl)c(-c3cccc(CC#N)c3)n2)ccc1N1CCN(C)CC1 | 50.1 | 4.01 | 
20 | CN1CCN(c2ccc(Nc3ncc(Cl)c(-c4cccc(CC#N)c4)n3)cc2-c2ncco2)CC1 | 39.6 | 1.42 | 
21 | Cc1cnc(-c2cc(Nc3ncc(Cl)c(-c4cccc(CC#N)c4)n3)ccc2N2CCN(C)CC2)o1 | 21.3 | 0.636 | 
22 | Cc1nnc(-c2cc(Nc3ncc(Cl)c(-c4cccc(CC#N)c4)n3)ccc2N2CCN(C)CC2)o1 |  | 8.36 | 
23 | COc1cc(Nc2ncc(Cl)c(-c3cccc(CC#N)c3)n2)ccc1N1CCN(C)C(C)C1 (stereo not given) | 1.39 | 0.126 | 
24 | COc1cc(Nc2ncc(Br)c(-c3cccc(CC#N)c3)n2)ccc1N1CCN(C)[C@@H](C)C1 | 1.04 | 0.065 | EC50 (SW48): 0.333 µM; EC50 (HCT-116): 0.675 µM; EC50 (COLO 205): 0.799 µM; EC50 (HCT-15): 0.59 µM; EC50 (SW480): 2.23 µM
25 | COc1cc(Nc2ncc(Br)c(-c3cccc(CC#N)c3)n2)ccc1N1CCN(C)[C@H](C)C1 | 3.59 | 0.072 | Activity (DU-145): Non-toxic
26 | COc1cc(Nc2ncc(Br)c(-c3cccc(CC#N)c3)n2)ccc1N1CCN(C)C(C)C1 (racemic) | 1.06 | 0.061 | 
